# According to patent US20060148828A1, “Combination comprising a CDK inhibitor and a topoisomerase 1 inhibitor for the treatment of cancer and other proliferative diseases” (Cyclacel Limited, priority 2003, published 2006):
# Several values for one entry are separate records, joined by “and”; a condition that tells them apart may be missing. Equal entries are not always repeated.
# How the values were obtained:
# [1] = tested on: wt-p53 HT29-A4 xenografts; test: Antitumor effects on xenografts in nude mice; format: in vivo, Swiss nu/nu mice; conditions: for TGI, tumor growth inhibition: at sacrifice of first control mouse
# [2] = tested on: HT29 colon tumor xenografts; test: In vivo drug efficacy on xenografts in nude mice; parameters: species or system Swiss nu/nu mice; conditions: for CR nb (complete regression) / Cures nb (tumour-free mice at end) / PR nb (partial response): 9 mice; for TGI % (day): day 21; for Calc growth delay (TGD treated − TGD control): doses as in Treatment column; for Fraction T/C (treated RTV/control RTV × 100): mouse, in vivo
# wt-p53 HT29-A4 cells [3] = test: Western blot of apoptosis markers (PARP p85, cleaved caspase-3); format: cell-based, human; conditions: 1 μM CPT-11 for 72 h
# wt-p53 HT29-A4 cells [4] = conditions: 1 μM CPT-11 for 72 h, synchronized cells
# Description: (§1) Cells were maintained in DMEM medium supplemented with 10% fetal calf serum, and under continuous selection with geneticin for the wt-p53 HT29-A4 cell line.
# (§2) Cells were synchronized in G0/G1 by serum starvation for 48 h. Addition of serum and fresh medium released cells from the block and promoted them to cycle. Cell cycle progression was analyzed by BrdU (5-bromo-2′-deoxiuridine; Sigma) incorporation as described (13).
# wt-p53 HT29-A4 cells [5] = test: Cell cycle progression (BrdU incorporation); conditions: 1 μM CPT-11, up to 36 h, G0/G1 synchronized cells
# Description: as §1, §2
# [6] = alone or in combination with chemotherapy, three to six 4-day cycles
# in vivo = conditions: Swiss nu/nu, mouse, po
# [7] = CPT-11 40 mg/kg/day i.p., 8 mice per group
smiles,measurement,setting,value
"CCc1c2c(nc3ccc(OC(=O)N4CCC(N5CCCCC5)CC4)cc13)-c1cc3c(c(=O)n1C2)COC(=O)[C@]3(O)CC [CPT-11, irinotecan]",Growth delay (treated/control TGT difference),[1]; CPT-11 10 mg/kg/day i.p.,10 days
same,No. PR (partial response),"[1]; CPT-11 10 mg/kg/day i.p., 10 mice per group",8
same,"TGI, tumor growth inhibition",[1]; CPT-11 10 mg/kg/day i.p.,60%
same,Growth delay (treated/control TGT difference),[1]; CPT-11 40 mg/kg/day i.p.,22 days
same,No. PR (partial response),[1]; [7],7
same,No. cures (tumor-free mice at end of experiment),[1]; [7],1
same,"TGI, tumor growth inhibition","[1]; CPT-11 40 mg/kg/day i.p., 40 mg/kg/day",87% and 86%
same,survival score of mice (tumors reaching 2000 mm3 as a function of time),[1]; CPT-11 at both doses (10 and 40 mg/kg/day),significantly increased the survival score
same,CR nb (complete regression),[2],0
same,Cures nb (tumour-free mice at end),[2],0
same,PR nb (partial response),[2],0
same,response of mut-p53 xenografts to CPT-11,"[2]; CPT-11 10 and 40 mg/kg/day i.p., data not shown",no response
same,TGI % (day),[2],61.6%
same,Calc growth delay (TGD treated − TGD control),[2],12.6 days
same,Fraction T/C (treated RTV/control RTV × 100),[2],38.4
same,"apoptosis (PARP p85 fragment, caspase-3 activation)",wt-p53 HT29-A4 cells [3],increased apoptosis
same,cell proliferation versus untreated cells and mut-p53 cells,wt-p53 HT29-A4 cells [4],significantly decreased cell proliferation
same,cell cycle blockage,wt-p53 HT29-A4 cells [5],blocked in early S phase
"CC[C@H](CO)Nc1nc(NCc2ccccc2)c2ncn(C(C)C)c2n1 [roscovitine, 6-benzylamino-2-[(R)-1-ethyl-2-hydroxyethylamino]-9-isopropylpurine]",antitumour activity as single agent,[2]; 400 mg/kg/day for up to six weeks,did not show antitumour activity
same,CR nb (complete regression),[2],0
same,Cures nb (tumour-free mice at end),[2],0
same,PR nb (partial response),[2],0
same,TGI % (day),[2],30.4%
same,Calc growth delay (TGD treated − TGD control),[2],3 days
same,Fraction T/C (treated RTV/control RTV × 100),[2],69.6
same,tolerance,[6],well tolerated
same,MTD,in vivo,400 mg/kg/day
